Measurements published in ChEMBL document CHEMBL1201862, “PubChem BioAssay data set” (2004).
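Following 48 hours of exposure in 96-well plates, responses at five concentrations were used to interpolate endpoints linearly. At the GI50, growth is halved.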 Active and inactive are the calls of the source. No stated cut-off is given here; in the data, active = GI50 up to about 1.1 µM and inactive = higher.

How the values were obtained:
Experiment in all cases: inhibition of tumour cell growth, NCI panel, 48 h
NCI/ADR-RES = test system: NCI/ADR-RES
MDA-MB-231 = test system: MDA-MB-231
SN12C = test system: SN12C
OVCAR-8 = test system: OVCAR-8
UO-31 = test system: UO-31
RXF 393 = test system: RXF 393
PC-3 = test system: PC-3
SNB-75 = test system: SNB-75
DU-145 = test system: DU-145
NCI-H460 = test system: NCI-H460
SNB-19 = test system: SNB-19
Malme-3M = test system: Malme-3M
OVCAR-4 = test system: OVCAR-4
CAKI-1 = test system: CAKI-1
MCF7 = test system: MCF7
SK-MEL-2 = test system: SK-MEL-2
UACC-257 = test system: UACC-257
NCI-H23 = test system: NCI-H23
HL-60 = test system: HL-60
MDA-MB-435 = test system: MDA-MB-435
SF-295 = test system: SF-295
786-0 = test system: 786-0
HCT-116 = test system: HCT-116
SK-MEL-28 = test system: SK-MEL-28
ACHN = test system: ACHN
TK-10 = test system: TK-10
SW-620 = test system: SW-620
SR = test system: SR
IGROV-1 = test system: IGROV-1
SK-MEL-5 = test system: SK-MEL-5
BT-549 = test system: BT-549
HOP-62 = test system: HOP-62
RPMI-8226 = test system: RPMI-8226
HOP-92 = test system: HOP-92
T47D = test system: T47D
HCT-15 = test system: HCT-15
A549 = test system: A549
HCC 2998 = test system: HCC 2998
UACC-62 = test system: UACC-62
NCI-H522 = test system: NCI-H522
MDA-N = test system: MDA-N
KM12 = test system: KM12
U-251 = test system: U-251
Hs-578T = test system: Hs-578T
LOX IMVI = test system: LOX IMVI
K562 = test system: K562
EKVX = test system: EKVX
OVCAR-3 = test system: OVCAR-3
NCI-H226 = test system: NCI-H226
SK-OV-3 = test system: SK-OV-3
M14 = test system: M14
SF-268 = test system: SF-268
A498 = test system: A498
OVCAR-5 = test system: OVCAR-5
HT-29 = test system: HT-29
SF-539 = test system: SF-539
COLO 205 = test system: COLO 205
MOLT-4 = test system: MOLT-4
CCRF-CEM = test system: CCRF-CEM

Q: With CC(Oc1ccc(Cl)cc1Cl)C(=O)NN1C(=O)CC(=O)NC1=S (stereo not given) as the compound, how does the GI50 (NCI/ADR-RES) read?
A: > 100 µM (inactive)

Q: What about the GI50 (MDA-MB-231) of the same compound?
A: > 100 µM (inactive)

Q: And the GI50 (SN12C)?
A: > 100 µM (inactive)

Q: And the GI50 (OVCAR-8)?
A: > 100 µM (inactive)

Q: And the GI50 (UO-31)?
A: > 100 µM (inactive)

Q: And the GI50 (RXF 393)?
A: > 100 µM (inactive)

Q: And the GI50 (PC-3)?
A: > 100 µM (inactive)

Q: And the GI50 (SNB-75)?
A: > 100 µM (inactive)

Q: What about the GI50 (DU-145) of the same compound?
A: > 100 µM (inactive)

Q: What about the GI50 (NCI-H460) of the same compound?
A: > 100 µM (inactive)

Q: And the GI50 (SNB-19)?
A: > 100 µM (inactive)

Q: And the GI50 (Malme-3M)?
A: > 100 µM (inactive)

Q: What about the GI50 (OVCAR-4) of the same compound?
A: > 100 µM (inactive)

Q: What about the GI50 (CAKI-1) of the same compound?
A: 82 µM (inactive)

Q: And the GI50 (MCF7)?
A: 76.7 µM (inactive)

Q: What about the GI50 (SK-MEL-2) of the same compound?
A: 80.5 µM (inactive)

Q: And the GI50 (UACC-257)?
A: > 100 µM (inactive)

Q: What about the GI50 (NCI-H23) of the same compound?
A: > 100 µM (inactive)

Q: What about the GI50 (HL-60) of the same compound?
A: 30.9 µM (inactive)

Q: What about the GI50 (MDA-MB-435) of the same compound?
A: > 100 µM (inactive)

Q: What about the GI50 (SF-295) of the same compound?
A: > 100 µM (inactive)

Q: What about the GI50 (786-0) of the same compound?
A: > 100 µM (inactive)

Q: What about the GI50 (HCT-116) of the same compound?
A: > 100 µM (inactive)

Q: What about the GI50 (SK-MEL-28) of the same compound?
A: > 100 µM (inactive)

Q: What about the GI50 (ACHN) of the same compound?
A: 88.1 µM (inactive)

Q: What about the GI50 (TK-10) of the same compound?
A: > 100 µM (inactive)

Q: And the GI50 (SW-620)?
A: > 100 µM (inactive)

Q: What about the GI50 (SR) of the same compound?
A: > 100 µM (inactive)

Q: What about the GI50 (IGROV-1) of the same compound?
A: > 100 µM (inactive)

Q: What about the GI50 (SK-MEL-5) of the same compound?
A: > 100 µM (inactive)

Q: What about the GI50 (BT-549) of the same compound?
A: > 100 µM (inactive)

Q: What about the GI50 (HOP-62) of the same compound?
A: > 100 µM (inactive)

Q: And the GI50 (RPMI-8226)?
A: 46 µM (inactive)

Q: What about the GI50 (HOP-92) of the same compound?
A: 39.6 µM (inactive)

Q: What about the GI50 (T47D) of the same compound?
A: 31.8 µM (inactive)

Q: And the GI50 (HCT-15)?
A: 86.9 µM

Q: What about the GI50 (A549) of the same compound?
A: > 100 µM (inactive)

Q: And the GI50 (HCC 2998)?
A: > 100 µM (inactive)

Q: What about the GI50 (UACC-62) of the same compound?
A: 36.5 µM (inactive)

Q: What about the GI50 (NCI-H522) of the same compound?
A: > 100 µM (inactive)

Q: What about the GI50 (MDA-N) of the same compound?
A: > 100 µM (inactive)

Q: And the GI50 (KM12)?
A: > 100 µM (inactive)

Q: And the GI50 (U-251)?
A: > 100 µM (inactive)

Q: What about the GI50 (Hs-578T) of the same compound?
A: > 100 µM (inactive)

Q: What about the GI50 (LOX IMVI) of the same compound?
A: 80 µM (inactive)

Q: What about the GI50 (K562) of the same compound?
A: > 100 µM (inactive)

Q: And the GI50 (EKVX)?
A: > 100 µM (inactive)

Q: What about the GI50 (OVCAR-3) of the same compound?
A: > 100 µM (inactive)

Q: What about the GI50 (NCI-H226) of the same compound?
A: 82.8 µM (inactive)

Q: What about the GI50 (SK-OV-3) of the same compound?
A: > 100 µM (inactive)

Q: And the GI50 (M14)?
A: > 100 µM (inactive)

Q: What about the GI50 (SF-268) of the same compound?
A: > 100 µM (inactive)

Q: What about the GI50 (A498) of the same compound?
A: 90.8 µM (inactive)

Q: What about the GI50 (OVCAR-5) of the same compound?
A: > 100 µM (inactive)

Q: What about the GI50 (HT-29) of the same compound?
A: > 100 µM (inactive)

Q: And the GI50 (SF-539)?
A: > 100 µM (inactive)

Q: What about the GI50 (COLO 205) of the same compound?
A: > 100 µM (inactive)

Q: For COc1ccc(NC(=S)N/N=C(\c2ccccc2)c2ccccn2)cc1, which GI50 (NCI/ADR-RES) is on record?
A: < 0.0904 µM (active)

Q: What about the GI50 (MDA-MB-231) of the same compound?
A: < 0.01 µM (active)

Q: What about the GI50 (SN12C) of the same compound?
A: 0.052 µM (active)

Q: And the GI50 (OVCAR-8)?
A: 0.0218 µM (active)

Q: And the GI50 (UO-31)?
A: 0.132 µM (active)

Q: And the GI50 (RXF 393)?
A: 0.603 µM (active)

Q: And the GI50 (PC-3)?
A: < 0.01 µM (active)

Q: And the GI50 (DU-145)?
A: 0.568 µM (active)

Q: What about the GI50 (MOLT-4) of the same compound?
A: < 0.01 µM (active)

Q: And the GI50 (NCI-H460)?
A: 0.0931 µM (active)

Q: What about the GI50 (SNB-19) of the same compound?
A: 2.84 µM (inactive)

Q: And the GI50 (Malme-3M)?
A: 0.172 µM (active)

Q: What about the GI50 (OVCAR-4) of the same compound?
A: 0.7 µM (active)

Q: What about the GI50 (CAKI-1) of the same compound?
A: 0.034 µM (active)

Q: And the GI50 (MCF7)?
A: < 0.01 µM (active)

Q: What about the GI50 (SK-MEL-2) of the same compound?
A: 2.5 µM (inactive)

Q: What about the GI50 (UACC-257) of the same compound?
A: < 0.01 µM (active)

Q: And the GI50 (NCI-H23)?
A: < 0.01 µM (active)

Q: And the GI50 (HL-60)?
A: < 0.01 µM (active)

Q: What about the GI50 (MDA-MB-435) of the same compound?
A: 1.96 µM (inactive)

Q: What about the GI50 (SF-295) of the same compound?
A: 0.121 µM (active)

Q: What about the GI50 (CCRF-CEM) of the same compound?
A: 0.01 µM (active)

Q: What about the GI50 (786-0) of the same compound?
A: < 0.0267 µM (active)

Q: What about the GI50 (HCT-116) of the same compound?
A: < 0.01 µM (active)

Q: And the GI50 (SK-MEL-28)?
A: 2.56 µM (inactive)

Q: What about the GI50 (ACHN) of the same compound?
A: < 0.027 µM (active)

Q: And the GI50 (TK-10)?
A: 0.0244 µM (active)

Q: And the GI50 (SW-620)?
A: < 0.01 µM (active)

Q: And the GI50 (SR)?
A: < 0.01 µM (active)

Q: What about the GI50 (IGROV-1) of the same compound?
A: < 0.01 µM (active)

Q: What about the GI50 (SK-MEL-5) of the same compound?
A: 0.0432 µM (active)

Q: And the GI50 (BT-549)?
A: 4.94 µM (inactive)

Q: And the GI50 (HOP-62)?
A: 0.06 µM (active)

Q: And the GI50 (RPMI-8226)?
A: < 0.01 µM (active)

Q: And the GI50 (HOP-92)?
A: 0.224 µM (active)

Q: What about the GI50 (T47D) of the same compound?
A: < 0.0317 µM (active)

Q: And the GI50 (HCT-15)?
A: < 0.01 µM

Q: And the GI50 (A549)?
A: 0.128 µM (active)

Q: What about the GI50 (HCC 2998) of the same compound?
A: 2.42 µM (inactive)

Q: And the GI50 (UACC-62)?
A: 0.104 µM (active)

Q: And the GI50 (NCI-H522)?
A: 0.0552 µM (active)

Q: And the GI50 (MDA-N)?
A: 0.263 µM (active)

Q: And the GI50 (KM12)?
A: 0.0479 µM (active)

Q: What about the GI50 (U-251) of the same compound?
A: < 0.0198 µM (active)

Q: What about the GI50 (Hs-578T) of the same compound?
A: 10.3 µM (inactive)

Q: What about the GI50 (LOX IMVI) of the same compound?
A: < 0.0152 µM (active)

Q: And the GI50 (K562)?
A: < 0.01 µM (active)

Q: And the GI50 (EKVX)?
A: < 0.0543 µM (active)

Q: And the GI50 (OVCAR-3)?
A: < 0.01 µM (active)

Q: And the GI50 (NCI-H226)?
A: 0.0753 µM (active)

Q: And the GI50 (SK-OV-3)?
A: 0.028 µM (active)

Q: What about the GI50 (M14) of the same compound?
A: 0.0117 µM (active)

Q: And the GI50 (SF-268)?
A: 0.123 µM (active)

Q: What about the GI50 (A498) of the same compound?
A: 0.587 µM (active)

Q: What about the GI50 (OVCAR-5) of the same compound?
A: 0.0241 µM (active)

Q: What about the GI50 (HT-29) of the same compound?
A: < 0.0118 µM (active)

Q: And the GI50 (SF-539)?
A: 0.348 µM (active)

Q: And the GI50 (COLO 205)?
A: < 0.01 µM (active)
